Patent US4335111A, “Compounds associating peptidyl of aminoacyl residues to lipophilic groups and pharmaceutical compositions containing said new compounds” (priority 1978, dated 1982)

Experiments:
[1] = test system: Klebsiella pneumoniae; assay: Anti-infectious activity: protection of mice inoculated with Klebsiella pneumoniae; assay type: in vivo; settings: for Protection (%) / Survival at day 10 of infection No/total: 100 μg i.v. at day -1; for Protection (%): i.m. infection with 1.5 × 10^4 viable organisms, difference between percentages of survivors in treated and control group; for Survival at day 10 of infection No/total: infection by the intramuscular route with 1.5 × 10^4 viable organisms; for % protection: difference of percentages of survivors, treated vs control group
[2] = test system: adrenalectomized mice; settings: 100 μg injected intravenously into five adrenalectomized mice
[3] = test system: rabbits; settings: doses as high as 5 mg/kg of body weight
[4] = concentration as high as 100 μg/ml
[5] = 100 μg i.v. 24 H before infection, infection 3.10^4 K.p. i.m., 24 mice at day 0
[6] = 100 μg i.v. 24 H before infection, infection 4.10^3 K.p. i.v., 24 mice at day 0 (8 for glyceryl-mycolate)

Row | Molecule | Protection (%) [1] | Survival at day 10 of infection No/total [1] | further results
1 | 1-O-(L-Ala-D-isoGln-L-Ala)-glycerol-3-corynomycolate | 28% | 11/32 | 
2 | 1-O-(β-Ala-D-isoGln-L-Ala)-glycerol-3-mycolate hydrochloride | 25% | 12/32 | 
3 | CCCCCCCCCCCCCCCCCC(=O)OCC(O)COC(=O)[C@H](C)NC(=O)CC[C@@H](NC(=O)[C@H](C)N)C(N)=O.Cl (stereo partly drawn) [1-O-(L-Ala-D-isoGln-L-Ala)-glycerol-3-stearate hydrochloride] | 8% | 4/24 | 
4 | CCCCCCCCCCCCCCCCCC(=O)OCC(COC(=O)[C@H](C)NC(=O)CC[C@@H](NC(=O)[C@H](C)N)C(N)=O)OC(=O)CCCCCCCCCCCCCCCCC.Cl (stereo partly drawn) [1-O-(L-Ala-D-isoGln-L-Ala)-glycerol-2,3-distearate hydrochloride] | 12% | 5/24 | 
5 | 1-O-(L-alanyl-L-isoglutaminyl-L-alanyl)-glycerol-3-mycolate hydrochloride | 12% | 7/32 | 
6 | glycerol-3-mycolate [Glyceryl-mycolate, reference compound] |  |  | Number of mice day 3 ([1]; mouse, in vivo, iv): 1; Number of mice day 5 ([1]; mouse, in vivo, iv): 1; Number of mice day 10 ([1]; mouse, in vivo, iv): 1; anti-infectious activity (in words) ([1]; mouse, in vivo, iv): devoid of significant activity
7 | 1-O-(L-alanyl)-glycerol-3-mycolate hydrochloride [1-O--(L--Ala)--glycerol-3-mycolate] | 35% | 16/40 | 
8 | 1-O(L-Ala-D-isoAsn-L-Ala)-glycerol-3-mycolate | 37% | 16/32 | 
9 | 1-O-(L-Ala-D-Gln-L-Ala)-glycerol-3-mycolate | 12% | 8/32 | 
10 | 1-O-(D-isoGln-L-Ala)-glycerol-3-mycolate hydrochloride | 47% | 28/49 | 
11 | CCCCCCCCCCOC(=O)C(C)NC(=O)CCC(NC(=O)C(C)N)C(N)=O.Cl [DP--L--Ala--decyl ester, L-Ala-D-isoGln-L-Ala-n-decylester hydrochloride] | 0% | 1/24 | 
12 | 1-O(L-alanyl-D-isoglutaminyl-L-alanyl)glycerol-3-mycolate | 70% | 31/40 | Number of mice day 3 [1, 5]: 23; Number of mice day 5 [1, 5]: 20; Number of mice day 10 [1, 5]: 17; % protection ([1]; 100 μg i.v. 24 H before infection, infection 3.10^4 K.p. i.m.): 37%; Number of mice day 3 [1, 6]: 21; Number of mice day 5 [1, 6]: 21; Number of mice day 10 [1, 6]: 21; % protection ([1]; 100 μg i.v. 24 H before infection, infection 4.10^3 K.p. i.v.): 79%; death of adrenalectomized mice [2]: did not cause death of any of them; hyperthermizing (pyrogenic) effect [3]: no hyperthermizing effect; Limulus test result [4]: negative
13 | CCCCCCCCCCCCCCCOC(=O)[C@H](C)NC(=O)CC[C@@H](NC(=O)[C@H](C)N)C(N)=O.Cl [DP--L--Ala--pentadecylester, L-Ala-D-isoGln-L-Alan-n-pentadecylester hydrochloride] | 4% | 4/32 | 
